Where two headings read alike, the source gives them in different places.
System: amphetamine-induced symptoms
Test: antagonism of amphetamine-induced symptoms in rats (blocking of amphetamine behavior of cage movement)
Format: in vivo
Conditions: Rattus norvegicus, ip
Source text: The tranquilizing agents of the present invention are characterized by relief of such schizophrenic manifestations in humans as hallucinations, hostility, suspiciousness, emotional and social withdrawal, anxiety, agitation and tension. Standard procedures of detecting and comparing tranquilizing activity of compounds in this series and for which there is an excellent correlation with human efficacy is the antagonism of amphetamine-induced symptoms in rats test as taught by A. Weissman, et al., J. Pharmacol. Exp. Ther., 151, 339 (1966) and by Quinton, et al., Nature, 200, 178 (1963).
The effects of the compounds of the present invention on prominent amphetamine-induced symptoms were studied in rats by a rating scale modeled after the one reported by Quinton and Halliwell; and Weissman. Groups of five rats were placed in a covered plastic cage measuring approximately 26 cm. × 42 cm. × 16 cm. After a brief period of acclimation in the cage, the rats in each group were treated intraperitoneally (i.p.) with the test compound. […] On the basis of dose-response data after amphetamine it was possible to determine the effective dose of the compound necessary to antagonize or block the characteristic amphetamine behavior of cage movement for fifty percent of the rats tested (ED50). The time of rating chosen coincides with the peak action of amphetamine which is 60-80 min. after treatment with this agent.
Employing the above-described procedure, the following compounds were tested for their ability to block the behavior effects to amphetamine, the results being reported as the ED50 in mg./kg. at the indicated times: […]

[1] = test compound i.p., d-amphetamine sulfate 5 mg./kg. i.p. 1 hr. later, rated one hour after amphetamine, read-out: ED50, 1 hr.
[2] = test compound i.p., d-amphetamine sulfate 5 mg./kg. i.p. 5 hrs. later, rated one hour after amphetamine, read-out: ED50, 5 hrs.

CN1Cc2c(n(-c3ccc(F)cc3)c3ccc(F)cc23)C1 [X = F, Z = F, R = CH3, 7-Fluoro-4-(p-fluorophenyl)-2-methyl-1,2,3,4-tetrahydropyrrolo[3,4-b]indole]
ED50 [1]: 3.2 to 5.6 mg/kg | ED50 [2]: > 10 mg/kg

CN(C)CCCN1c2ccccc2Sc2ccc(Cl)cc21 [chlorpromazine, reference compound]
ED50 (1 h, read-out: ED50, 1 hr.): > 10 mg/kg

OC(CCCN1Cc2c(n(-c3ccc(F)cc3)c3ccc(F)cc23)C1)c1ccc(F)cc1 (centres unmarked)
ED50 [1]: 1 to 3.2 mg/kg | ED50 [2]: 1 to 3.2 mg/kg

Source: patent publication US4006164A, “4-Aryl-1,2,3,4-tetrahydropyrrolo[3,4-b]indoles” (Pfizer Inc., priority 1975, dated 1977)
